Reference: patent publication US20240131044A1, “METHOD FOR TREATING CANCER” (M.T.3, Inc., priority 2022, published 2024)

System: CHO cells
Experiment: Colony formation, survival fraction of CHO cells
Type: cell-based, Chinese hamsters
Procedure: An anti-cancer agent and a pharmaceutical composition were administered to test cells and then the cells were cultured. Then, after colonies were formed, the number of colonies was counted. Here, samples in which the concentration of the anti-cancer agent to be administered was varied were prepared, and in each sample, the survival fraction of the cells compared with the case where cells were cultured without administration of the pharmaceutical composition was measured. Regarding the type of anti-cancer agent to be administered, a predetermined anti-cancer agent was selected depending on the type of administration target cells. Note that cells that were cultured without administration of the pharmaceutical composition and the anti-cancer agent were used as a control. Hereinafter, these steps will be described.
Here, CHO cells, V79 cells, and canine-derived cancer cells were prepared as the test cells. The CHO cells are ovarian cells derived from Chinese hamsters, and the V79 cells are fibroblasts derived from the lungs of Chinese hamsters. Melanoma developing cells (CML6M) and soft tissue sarcoma developing cells (STSA-1) were used as the cancer cells.
The cancer cells were prepared by being cultured using an αMEM culture medium supplemented with 10% serum and an antibiotic. The cancer cells were prepared such that, when the concentration of the cells in a cell suspension obtained by subjecting the cultured cells to PBS washing and trypsin treatment, the concentration was within a predetermined concentration range. Here, the predetermined concentration ranges were 300 cells/well, 100 to 150 cells/well, and 500 to 1000 cells/well for the CHO/V79 cells, the melanoma cells, and the soft tissue sarcoma cells, respectively.
Next, the cancer cells were cultured in culture environments to which the anti-cancer agent was added at various concentrations, and were then allowed to form colonies. The culture periods for colony formation were a week, 10 days, and 14 days for CHO and V79, melanoma, and soft tissue sarcoma, respectively. After colonies were formed, washing using a physiological saline solution, fixation using 100% ethanol, and staining using 0.1% crystal violet were performed, and then the number of colonies per well was counted under a microscope. Note that, here, the colony was defined as containing 50 or more cells. […]
In the above examples, the anti-cancer agent and the pharmaceutical composition were administered to the test cells and then the cells were cultured. In this example, test cells were cultured after administering pharmaceutical composition (SQAP) alone without administering the anti-cancer agent to the test cells, and then the number of colonies was counted after colonies were formed. […]

SMILES: CCCCCCCCCCCCCCCCCC(=O)OCCCO[C@H]1O[C@H](CS(=O)(=O)O)[C@@H](O)[C@H](O)[C@H]1O [SQAP, sulfoquinovosylacylpropanediol]
- survival fraction (SQAP 30 μM alone): about 75%
- survival fraction (mitomycin C 500 nM + SQAP 30 μM): about 1%
- survival fraction (mitomycin C 500 μM + SQAP 30 μM (as restated in Example 10)): about 1%
